10 compounds from PubChem BioAssay AID463074 (Broad Institute, 2010) can be followed below.

For the assay, the system named is HMLE_sh_eGFP viability, CellTiter-Glo luminescence, 72 h. The assay can be described thus: viability loss of HMLE_sh_eGFP cells – cell-based, luminescence, counter-screen for HMLE_sh_ECad selective toxicity project, dose response (AID 463074).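 Also: counterscreen control line to flag general toxicity for the HMLE_sh_ECad screen; potency for loss of viability as luminescence drops below DMSO wells.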
Regarding `CN1CCN(c2ccccc2NC(=O)c2ccc(-c3ccc(Cl)c(Cl)c3)o2)CC1`, the AC50 is 6.68 µM.

For the compound `COc1ccc(/C=N/NC(=O)CCn2cnc(-c3ccccc3)c2-c2ccccc2)cc1OC`, the AC50 was 0.922 µM.

Turning to `COc1ccc(NC(=O)c2nc[nH]c2C(=O)N[C@@H](CC(C)C)C(=O)OC(C)(C)C)cc1`, the AC50 is 8.85 µM.

With `Fc1ccc(CSc2nc3ccccc3[nH]2)c2ccccc12`, the AC50 is 5.51 µM.

For the compound `Cc1cccc(-n2ncc(Cl)c(Cl)c2=O)c1`, the AC50 is 4.52 µM.

Turning to `CCN(CC)CCCNC(=O)c1cc(-c2ccccc2)c(N2CCCCC2)s1`, the AC50 was 3.29 µM.

Turning to `Cc1ccn2c(NC3CCCCC3)c(-c3cccc(-c4cccc(Cl)c4)c3)nc2c1`, the AC50 is 6.68 µM.

With `Cc1ccc(NC(=O)c2nc[nH]c2C(=O)NCCCNC(=O)c2[nH]cnc2C(=O)Nc2ccc(C)cc2)cc1`, the AC50 was 3.86 µM.

On to `CC(C)CCn1c(N)c(C(=O)NCc2cccs2)c2nc3ccccc3nc21`, for which the AC50 was 7.25 µM.

As for `N#Cc1c(-c2ccccc2)cc(-c2ccccc2)nc1SCCC(=O)O`, the AC50 is 2.41 µM.
